The record followed here is BindingDB's records for doi:10.1016/j.bmcl.2019.05.013 (Daiichi Sankyo, 2019).

The target in this assay is T1, Solute carrier family 2, facilitated glucose transporter member 4 (Rattus norvegicus, UniProt P19357).
T1 sequence (P19357 whole entry): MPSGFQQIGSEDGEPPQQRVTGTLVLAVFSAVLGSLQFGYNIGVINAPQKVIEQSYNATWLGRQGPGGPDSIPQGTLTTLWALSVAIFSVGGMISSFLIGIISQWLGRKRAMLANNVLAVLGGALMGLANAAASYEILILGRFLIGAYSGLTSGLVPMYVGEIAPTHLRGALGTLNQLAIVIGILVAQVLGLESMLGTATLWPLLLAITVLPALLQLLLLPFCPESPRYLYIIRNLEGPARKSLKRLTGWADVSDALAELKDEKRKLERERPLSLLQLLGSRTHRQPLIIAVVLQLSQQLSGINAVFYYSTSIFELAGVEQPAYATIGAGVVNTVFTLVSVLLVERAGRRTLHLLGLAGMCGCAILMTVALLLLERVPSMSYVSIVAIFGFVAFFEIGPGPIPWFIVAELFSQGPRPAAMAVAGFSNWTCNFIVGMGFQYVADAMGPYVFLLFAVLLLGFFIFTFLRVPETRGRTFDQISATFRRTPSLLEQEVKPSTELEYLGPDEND
The assay is described as follows: Induction of GLUT4 translocation in rat L6-GLUT4myc differentiated myotube cells after 20 mins by chemiluminescent method.

Turning to `COc1ccccc1-c1nnc(Nc2ccc(CC(N)=O)cc2)c2c1CCC2`, the response was half-maximal at 4700 nM (EC50). This counts as single-digit micromolar.

On to `NC(=O)Cc1ccc(Nc2nnc(-c3ccccc3OCc3cscn3)c3sccc23)c(F)c1`, for which a half-maximal effect (EC50) was put at 110 nM. To `COc1ccccc1-c1nnc(Nc2ccc(CC(N)=O)cc2F)c2ccsc12` belongs 650 nM; to `COCCOCCOc1ccccc1-c1nnc(Nc2ccc(CC(N)=O)cc2F)c2ccsc12`, 230 nM. Under `CC(C)(C)OC(=O)NCCOCCOc1ccccc1-c1nnc(Nc2ccc(CC(N)=O)cc2F)c2ccsc12` stands 24 nM; under `CC(C)(C)NC(=O)NCCOCCOc1ccccc1-c1nnc(Nc2ccc(CC(N)=O)cc2F)c2ccsc12`, 120 nM; under `NC(=O)Cc1ccc(Nc2nnc(-c3ccccc3OCc3ccccn3)c3sccc23)c(F)c1`, 140 nM.

With `NC(=O)Cc1ccc(Nc2nnc(-c3ccccc3OCC3COCCO3)c3sccc23)c(F)c1` (stereo unspecified), the EC50 (in general, the concentration that produces a half-maximal response) was found to be 76 nM. Against the preceding compound, the EC50 is about 1.8-fold lower. In turn, `COCCOc1ccccc1-c1nnc(Nc2ccc(CC(N)=O)cc2F)c2ccsc12` gave an EC50 of 140 nM. Under `CC(C)(C)OC(=O)NCCCCOc1ccccc1-c1nnc(Nc2ccc(CC(N)=O)cc2F)c2ccsc12` stands 47 nM. Under `CCOC(=O)NCCCCOc1ccccc1-c1nnc(Nc2ccc(CC(N)=O)cc2F)c2ccsc12` stands 230 nM.
